Measurements: the NIST ThermoML archive (doi:10.1021/je050010l)

Legend:
[1] = refractive index (Na D-line) (dimensionless); xn = mol fraction of the nth substance listed; details: 100.8 kPa, Liquid, Standard Abbe refractometry
[2] = xn = mol fraction of the nth substance listed; details: 100.8 kPa, Liquid; for viscosity: Capillary tube (Ostwald / Ubbelohde) method

CC(C)CC(C)(C)C [2,2,4-trimethylpentane] + CC(C)=O
Details	mass density, 288.15 K [kg/m3]	mass density, 298.15 K [kg/m3]	mass density, 308.15 K [kg/m3]	refractive index, 288.15 K	refractive index, 298.15 K	refractive index, 308.15 K	viscosity, 288.15 K [mPa·s]	viscosity, 298.15 K [mPa·s]	viscosity, 308.15 K [mPa·s]
[1], x2 = 0	–	–	–	1.39404	1.389	1.38395	–	–	–
[1], x2 = 0.0499	–	–	–	1.39283	1.38765	1.38256	–	–	–
[1], x2 = 0.1	–	–	–	1.39158	1.38634	1.38119	–	–	–
[1], x2 = 0.15	–	–	–	1.39031	1.38501	1.37981	–	–	–
[1], x2 = 0.2	–	–	–	1.38905	1.38374	1.37848	–	–	–
[1], x2 = 0.25	–	–	–	1.38769	1.3824	1.3771	–	–	–
[1], x2 = 0.3	–	–	–	1.3864	1.3811	1.37574	–	–	–
[1], x2 = 0.35	–	–	–	1.38509	1.37975	1.37434	–	–	–
[1], x2 = 0.4	–	–	–	1.38374	1.37833	1.3729	–	–	–
[1], x2 = 0.45	–	–	–	1.38233	1.37687	1.37142	–	–	–
[1], x2 = 0.5	–	–	–	1.38086	1.37538	1.36989	–	–	–
[1], x2 = 0.55	–	–	–	1.37934	1.37379	1.36831	–	–	–
[1], x2 = 0.6	–	–	–	1.37774	1.37219	1.36666	–	–	–
[1], x2 = 0.65	–	–	–	1.37606	1.3705	1.36495	–	–	–
[1], x2 = 0.7	–	–	–	1.3743	1.3687	1.36314	–	–	–
[1], x2 = 0.75	–	–	–	1.37243	1.36683	1.36126	–	–	–
[1], x2 = 0.8	–	–	–	1.37045	1.36486	1.35931	–	–	–
[1], x2 = 0.85	–	–	–	1.36839	1.36279	1.35726	–	–	–
[1], x2 = 0.9	–	–	–	1.36624	1.36064	1.3551	–	–	–
[1], x2 = 0.95	–	–	–	1.36394	1.35838	1.35285	–	–	–
[2], x2 = 0	695.95	687.74	679.41	–	–	–	0.537	0.48	0.432
[2], x2 = 0.0499	697.34	688.89	680.44	–	–	–	0.519	0.465	0.42
[2], x2 = 0.1	698.86	690.36	681.77	–	–	–	0.505	0.452	0.408
[2], x2 = 0.15	700.68	692.07	683.36	–	–	–	0.492	0.44	0.397
[2], x2 = 0.2	702.68	693.98	685.16	–	–	–	0.479	0.429	0.387
[2], x2 = 0.25	705.09	696.24	687.26	–	–	–	0.468	0.419	0.378
[2], x2 = 0.3	707.68	698.7	689.56	–	–	–	0.456	0.409	0.369
[2], x2 = 0.35	710.55	701.44	692.21	–	–	–	0.446	0.399	0.361
[2], x2 = 0.4	713.76	704.51	695.1	–	–	–	0.436	0.39	0.353
[2], x2 = 0.45	717.31	707.86	698.29	–	–	–	0.426	0.382	0.346
[2], x2 = 0.5	721.15	711.61	701.91	–	–	–	0.416	0.374	0.338
[2], x2 = 0.55	725.46	715.73	705.86	–	–	–	0.407	0.366	0.332
[2], x2 = 0.6	730.17	720.32	710.3	–	–	–	0.398	0.358	0.325
[2], x2 = 0.65	735.45	725.44	715.27	–	–	–	0.389	0.35	0.318
[2], x2 = 0.7	741.35	731.16	720.79	–	–	–	0.38	0.343	0.312
[2], x2 = 0.75	747.84	737.51	727.01	–	–	–	0.372	0.336	0.306
[2], x2 = 0.8	755.3	744.71	733.99	–	–	–	0.364	0.329	0.299
[2], x2 = 0.85	763.58	752.89	742.02	–	–	–	0.356	0.322	0.293
[2], x2 = 0.9	773.12	762.22	751.12	–	–	–	0.348	0.315	0.287
[2], x2 = 0.95	784.18	773.02	761.68	–	–	–	0.341	0.309	0.281

CC(C)CC(C)(C)C [2,2,4-trimethylpentane] + CCO
Details	mass density, 288.15 K [kg/m3]	mass density, 298.15 K [kg/m3]	mass density, 308.15 K [kg/m3]	refractive index, 288.15 K	refractive index, 298.15 K	refractive index, 308.15 K	viscosity, 288.15 K [mPa·s]	viscosity, 298.15 K [mPa·s]	viscosity, 308.15 K [mPa·s]
[1], x2 = 0	–	–	–	1.39404	1.389	1.38395	–	–	–
[1], x2 = 0.0502	–	–	–	1.39319	1.3881	1.38297	–	–	–
[1], x2 = 0.1	–	–	–	1.39241	1.3873	1.38217	–	–	–
[1], x2 = 0.15	–	–	–	1.39162	1.38651	1.38138	–	–	–
[1], x2 = 0.2	–	–	–	1.39081	1.38569	1.38056	–	–	–
[1], x2 = 0.25	–	–	–	1.38996	1.38485	1.37972	–	–	–
[1], x2 = 0.3	–	–	–	1.38907	1.38397	1.37885	–	–	–
[1], x2 = 0.35	–	–	–	1.38811	1.38304	1.37794	–	–	–
[1], x2 = 0.4	–	–	–	1.38709	1.38204	1.37696	–	–	–
[1], x2 = 0.45	–	–	–	1.38597	1.38099	1.37593	–	–	–
[1], x2 = 0.5	–	–	–	1.38479	1.37984	1.3748	–	–	–
[1], x2 = 0.55	–	–	–	1.3835	1.37858	1.37358	–	–	–
[1], x2 = 0.6	–	–	–	1.38209	1.37722	1.37227	–	–	–
[1], x2 = 0.65	–	–	–	1.38055	1.37573	1.37083	–	–	–
[1], x2 = 0.7	–	–	–	1.37884	1.37408	1.36922	–	–	–
[1], x2 = 0.75	–	–	–	1.37694	1.37225	1.36745	–	–	–
[1], x2 = 0.8	–	–	–	1.37484	1.3702	1.3655	–	–	–
[1], x2 = 0.85	–	–	–	1.37249	1.36792	1.3633	–	–	–
[1], x2 = 0.9	–	–	–	1.36984	1.36536	1.36085	–	–	–
[1], x2 = 0.95	–	–	–	1.36684	1.36248	1.35812	–	–	–
[2], x2 = 0	695.95	687.74	679.41	–	–	–	0.537	0.48	0.432
[2], x2 = 0.0502	697.2	688.84	680.36	–	–	–	0.532	0.473	0.424
[2], x2 = 0.1	698.76	690.33	681.76	–	–	–	0.535	0.476	0.426
[2], x2 = 0.15	700.55	692.11	683.52	–	–	–	0.542	0.48	0.429
[2], x2 = 0.2	702.53	694.07	685.43	–	–	–	0.551	0.487	0.434
[2], x2 = 0.25	704.71	696.21	687.56	–	–	–	0.564	0.497	0.441
[2], x2 = 0.3	707.1	698.57	689.88	–	–	–	0.58	0.51	0.451
[2], x2 = 0.35	709.71	701.17	692.45	–	–	–	0.601	0.526	0.462
[2], x2 = 0.4	712.6	704.03	695.3	–	–	–	0.625	0.543	0.476
[2], x2 = 0.45	715.8	707.2	698.44	–	–	–	0.652	0.565	0.492
[2], x2 = 0.5	719.31	710.68	701.91	–	–	–	0.682	0.588	0.51
[2], x2 = 0.55	723.22	714.59	705.8	–	–	–	0.718	0.615	0.531
[2], x2 = 0.6	727.55	718.9	710.11	–	–	–	0.755	0.645	0.554
[2], x2 = 0.65	732.37	723.73	714.93	–	–	–	0.797	0.677	0.58
[2], x2 = 0.7	737.81	729.14	720.34	–	–	–	0.843	0.715	0.609
[2], x2 = 0.75	743.99	735.34	726.54	–	–	–	0.894	0.755	0.642
[2], x2 = 0.8	751.11	742.37	733.58	–	–	–	0.952	0.801	0.678
[2], x2 = 0.85	759.27	750.54	741.75	–	–	–	1.018	0.854	0.72
[2], x2 = 0.9	768.81	760.17	751.44	–	–	–	1.095	0.915	0.769
[2], x2 = 0.95	780.26	771.59	762.84	–	–	–	1.19	0.991	0.828
